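All cell lines were grown in 96-well plates and treated with compound for 48 hours. GI50 = concentration required for 50% inhibition of growth.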 Active and inactive are the calls of the source. Cut-off read from the data, not from the text of the source: active = GI50 up to about 1.1 µM and inactive = higher.
Legend:
Assay in all cases: NCI tumour cell line growth inhibition, 48 h
HOP-92 = test system: HOP-92
SK-OV-3 = test system: SK-OV-3
U-251 = test system: U-251
786-0 = test system: 786-0
A549 = test system: A549
RPMI-8226 = test system: RPMI-8226
KM12 = test system: KM12
PC-3 = test system: PC-3
SN12C = test system: SN12C
ACHN = test system: ACHN
NCI-H522 = test system: NCI-H522
LOX IMVI = test system: LOX IMVI
HL-60 = test system: HL-60
EKVX = test system: EKVX
SNB-75 = test system: SNB-75
OVCAR-3 = test system: OVCAR-3
Hs-578T = test system: Hs-578T
SK-MEL-28 = test system: SK-MEL-28
NCI/ADR-RES = test system: NCI/ADR-RES
OVCAR-4 = test system: OVCAR-4
MOLT-4 = test system: MOLT-4
MDA-MB-231 = test system: MDA-MB-231
HT-29 = test system: HT-29
Malme-3M = test system: Malme-3M
DU-145 = test system: DU-145
MCF7 = test system: MCF7
NCI-H23 = test system: NCI-H23
NCI-H226 = test system: NCI-H226
MDA-MB-435 = test system: MDA-MB-435
SW-620 = test system: SW-620
A498 = test system: A498
SR = test system: SR
M14 = test system: M14
IGROV-1 = test system: IGROV-1
COLO 205 = test system: COLO 205
UACC-62 = test system: UACC-62
K562 = test system: K562
SK-MEL-5 = test system: SK-MEL-5
SF-268 = test system: SF-268
UO-31 = test system: UO-31
OVCAR-5 = test system: OVCAR-5
SNB-19 = test system: SNB-19
CCRF-CEM = test system: CCRF-CEM
SK-MEL-2 = test system: SK-MEL-2
HCT-15 = test system: HCT-15
HCT-116 = test system: HCT-116
MDA-N = test system: MDA-N
SF-295 = test system: SF-295
OVCAR-8 = test system: OVCAR-8
HOP-62 = test system: HOP-62
TK-10 = test system: TK-10
T47D = test system: T47D
UACC-257 = test system: UACC-257
HCC 2998 = test system: HCC 2998
CAKI-1 = test system: CAKI-1
RXF 393 = test system: RXF 393

What does the source list for `CSC1=N/C(=C\c2cccs2)C(=O)N1CN1CCOCC1`?
GI50 (HOP-92): 4.82 µM (inactive); GI50 (SK-OV-3): > 100 µM (inactive); GI50 (U-251): 85.5 µM (inactive); GI50 (786-0): 44.5 µM (inactive); GI50 (A549): > 100 µM (inactive); GI50 (RPMI-8226): 20 µM (inactive); GI50 (KM12): 57.7 µM (inactive); GI50 (PC-3): 50.8 µM (inactive); GI50 (SN12C): 5.2 µM (inactive); GI50 (ACHN): 37.2 µM (inactive); GI50 (NCI-H522): 30.1 µM (inactive); GI50 (LOX IMVI): 33.1 µM (inactive); GI50 (HL-60): 0.0465 µM (active); GI50 (EKVX): 40.6 µM (inactive); GI50 (SNB-75): 37.5 µM (inactive); GI50 (OVCAR-3): > 100 µM (inactive); GI50 (Hs-578T): 51.6 µM (inactive); GI50 (SK-MEL-28): > 100 µM (inactive); GI50 (NCI/ADR-RES): 14.3 µM (inactive); GI50 (OVCAR-4): 30.6 µM (inactive); GI50 (MOLT-4): 34.1 µM (inactive); GI50 (MDA-MB-231): 71.1 µM (inactive); GI50 (HT-29): 24.9 µM (inactive); GI50 (Malme-3M): 44.7 µM (inactive); GI50 (DU-145): 65.9 µM (inactive); GI50 (MCF7): 32.2 µM (inactive); GI50 (NCI-H23): > 100 µM (inactive); GI50 (NCI-H226): 31.1 µM (inactive); GI50 (MDA-MB-435): > 100 µM (inactive); GI50 (SW-620): 55 µM (inactive); GI50 (A498): 64.9 µM (inactive); GI50 (SR): 17.4 µM (inactive); GI50 (M14): 61.7 µM (inactive); GI50 (IGROV-1): 41.5 µM (inactive); GI50 (COLO 205): 45.5 µM (inactive); GI50 (UACC-62): 42.4 µM (inactive); GI50 (K562): 43.8 µM (inactive); GI50 (SK-MEL-5): 41.1 µM (inactive); GI50 (SF-268): 42.3 µM (inactive); GI50 (UO-31): 39.9 µM (inactive); GI50 (OVCAR-5): > 100 µM (inactive); GI50 (SNB-19): 45.6 µM (inactive); GI50 (CCRF-CEM): 27.3 µM (inactive); GI50 (SK-MEL-2): 52.4 µM (inactive); GI50 (HCT-15): 38.1 µM; GI50 (HCT-116): 31.3 µM (inactive); GI50 (MDA-N): 59 µM (inactive); GI50 (SF-295): > 100 µM (inactive); GI50 (OVCAR-8): 28.8 µM (inactive); GI50 (HOP-62): 95.7 µM (inactive); GI50 (TK-10): 86.7 µM (inactive)

`C/C(=C\CCC1=CC(=O)OC1)CC[C@@H]1[C@H]2C(=O)CC(C)[C@@]3(C)CC[C@]1(C)[C@@]23C` (stereo partly specified) was tested. Which GI50 (SK-OV-3) did it give?
Its GI50 is > 10 µM (inactive).

And the GI50 (T47D)?
Its GI50 is > 10 µM (inactive).

And the GI50 (786-0)?
The GI50 was > 10 µM (inactive).

And the GI50 (A549)?
The GI50 was > 10 µM (inactive).

And the GI50 (UACC-257)?
Its GI50 is > 10 µM (inactive).

What about the GI50 (RPMI-8226) of the same compound?
The GI50 was > 10 µM (inactive).

And the GI50 (HCC 2998)?
Its GI50 is > 10 µM (inactive).

What about the GI50 (KM12) of the same compound?
Its GI50 is > 10 µM (inactive).

What about the GI50 (PC-3) of the same compound?
Its GI50 is > 10 µM (inactive).

And the GI50 (SN12C)?
Its GI50 is > 10 µM (inactive).

And the GI50 (CAKI-1)?
The GI50 was > 10 µM (inactive).

What about the GI50 (RXF 393) of the same compound?
The GI50 was > 10 µM (inactive).

And the GI50 (LOX IMVI)?
The GI50 was > 10 µM (inactive).

And the GI50 (HL-60)?
Its GI50 is > 10 µM (inactive).

What about the GI50 (EKVX) of the same compound?
Its GI50 is > 10 µM (inactive).

And the GI50 (SNB-75)?
The GI50 was > 10 µM (inactive).

And the GI50 (SK-MEL-28)?
Its GI50 is > 10 µM (inactive).

What about the GI50 (MOLT-4) of the same compound?
Its GI50 is > 10 µM (inactive).

And the GI50 (MDA-MB-231)?
Its GI50 is > 10 µM (inactive).

And the GI50 (HT-29)?
The GI50 was > 10 µM (inactive).

What about the GI50 (Malme-3M) of the same compound?
The GI50 was > 10 µM (inactive).

What about the GI50 (DU-145) of the same compound?
Its GI50 is > 10 µM (inactive).

And the GI50 (MCF7)?
The GI50 was > 10 µM (inactive).

And the GI50 (NCI-H23)?
Its GI50 is > 10 µM (inactive).

What about the GI50 (SW-620) of the same compound?
The GI50 was > 10 µM (inactive).

What about the GI50 (SR) of the same compound?
Its GI50 is > 10 µM (inactive).

And the GI50 (M14)?
Its GI50 is > 10 µM (inactive).

What about the GI50 (IGROV-1) of the same compound?
The GI50 was > 10 µM (inactive).

And the GI50 (COLO 205)?
The GI50 was > 10 µM (inactive).

And the GI50 (UACC-62)?
The GI50 was > 10 µM (inactive).

What about the GI50 (K562) of the same compound?
Its GI50 is > 10 µM (inactive).

What about the GI50 (SK-MEL-5) of the same compound?
The GI50 was > 10 µM (inactive).

What about the GI50 (SF-268) of the same compound?
Its GI50 is > 10 µM (inactive).

And the GI50 (CCRF-CEM)?
The GI50 was > 10 µM (inactive).

And the GI50 (HCT-15)?
Its GI50 is over 10 µM.

What about the GI50 (MDA-N) of the same compound?
Its GI50 is > 10 µM (inactive).

What about the GI50 (SF-295) of the same compound?
The GI50 was > 10 µM (inactive).

What about the GI50 (OVCAR-8) of the same compound?
The GI50 was > 10 µM (inactive).

What about the GI50 (HOP-62) of the same compound?
The GI50 was > 10 µM (inactive).

What about the GI50 (TK-10) of the same compound?
Its GI50 is > 10 µM (inactive).
